Among the data in ChEMBL document CHEMBL1146612 (Bioorg Med Chem Lett, 2003) are Ki and inhibition values, retold here.

One assay addresses Histamine H3 receptor (Cavia porcellus, UniProt Q9JI35). Put plainly: Binding affinity against H3 receptor in guinea pig brain using [3H]N-alpha-methyl histamine as radioligand.
In the next assay the target is Histamine H1 receptor (Rattus norvegicus, UniProt P31390). Put plainly: Ability to displace [3H]pyrilamine from histamine H1 receptor in male Sprague-Dawley rat brain membranes. It counts as tissue-based, Membrane.
The target of assay [1] is Histamine H1 receptor (Rattus norvegicus) (UniProt P31390). Nature of the assay: Ability to displace [3H]pyrilamine from histamine H1 receptor in male Sprague-Dawley rat brain membranes at 1 ug/mL. The conditions noted are these: Membrane. It counts as tissue-based.
Sequence of Histamine H1 receptor (Rattus norvegicus) (P31390 whole entry): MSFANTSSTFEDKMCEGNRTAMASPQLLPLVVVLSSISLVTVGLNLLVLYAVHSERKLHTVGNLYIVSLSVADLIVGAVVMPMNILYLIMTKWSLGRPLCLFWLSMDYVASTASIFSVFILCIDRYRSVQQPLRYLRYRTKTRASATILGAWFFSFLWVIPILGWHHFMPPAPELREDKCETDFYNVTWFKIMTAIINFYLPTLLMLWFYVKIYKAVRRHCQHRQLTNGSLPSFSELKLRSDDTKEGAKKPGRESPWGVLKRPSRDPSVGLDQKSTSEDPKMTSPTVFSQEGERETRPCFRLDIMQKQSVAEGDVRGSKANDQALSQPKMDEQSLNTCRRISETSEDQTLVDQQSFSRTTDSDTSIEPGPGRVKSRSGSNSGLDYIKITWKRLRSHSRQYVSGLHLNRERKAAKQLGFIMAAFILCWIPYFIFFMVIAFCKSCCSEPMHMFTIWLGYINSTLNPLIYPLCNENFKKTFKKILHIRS

Sequence of Histamine H1 receptor (P31390 whole entry): as above
Sequence of Histamine H3 receptor (Q9JI35 whole entry): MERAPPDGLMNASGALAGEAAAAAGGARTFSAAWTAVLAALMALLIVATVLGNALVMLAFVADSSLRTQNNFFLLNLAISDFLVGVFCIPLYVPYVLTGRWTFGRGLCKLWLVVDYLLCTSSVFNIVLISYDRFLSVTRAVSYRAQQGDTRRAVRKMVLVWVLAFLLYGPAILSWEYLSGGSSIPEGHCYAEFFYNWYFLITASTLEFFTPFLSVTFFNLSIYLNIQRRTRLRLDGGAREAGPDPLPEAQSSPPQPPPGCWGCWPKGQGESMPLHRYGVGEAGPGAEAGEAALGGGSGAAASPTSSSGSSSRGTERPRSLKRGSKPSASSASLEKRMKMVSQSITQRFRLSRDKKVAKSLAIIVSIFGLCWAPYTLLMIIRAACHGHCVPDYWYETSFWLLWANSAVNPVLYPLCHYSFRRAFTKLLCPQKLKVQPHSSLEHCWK

Regarding `CN(CCCCCc1c[nH]cn1)CCC(c1ccc(Cl)cc1)c1ccccn1` (stereo not given), the Ki at Histamine H3 receptor amounted to 50 nM; on Histamine H1 receptor it was 6 nM.
With `Clc1ccc(C(CCNCCCc2c[nH]cn2)c2ccccn2)cc1` (stereo not given), in assay [1], the inhibition is below 50%.
The compound `N=C(CC(c1ccc(Cl)cc1)c1ccccn1)NCCc1c[nH]cn1` (stereo not given) had an inhibition in assay [1] below 50%.
The same measure, in the same setting: next, `O=C(CC(c1ccc(Cl)cc1)c1ccccn1)NCCc1c[nH]cn1` (stereo not given): below 50%.
Take `O=C(NCCCCc1cnc[nH]1)NCCC(c1ccc(Cl)cc1)c1ccccn1` (stereo not given): the Ki on Histamine H3 receptor stood at 23 nM; at Histamine H1 receptor it was 920 nM.
At Histamine H3 receptor, `O=C(CC(c1ccccn1)c1ccccn1)NCCCCc1c[nH]cn1` registered a Ki of 1 nM. Besides, the inhibition in assay [1] was below 50%.
The like results for `CN(CCCCc1c[nH]cn1)C(=O)CC(c1ccc(Cl)cc1)c1ccccn1` (stereo not given) were, in that order, 7 nM and below 50%.
As to `CN(CCC(c1ccc(Cl)cc1)c1ccccn1)C(=O)CCc1c[nH]cn1` (stereo not given), the inhibition in assay [1] is below 50%.
`O=C(CCc1c[nH]cn1)NCCC(c1ccc(Cl)cc1)c1ccccn1` (stereo not given) displayed an inhibition in assay [1] below 50%.
Consider `Clc1ccc(C(CCNCCCCCc2cnc[nH]2)c2ccccn2)cc1` (stereo not given), for which the Ki at Histamine H3 receptor came out at 33 nM; at Histamine H1 receptor, 39 nM.
Take `c1ccc(C(CCNCCCCc2c[nH]cn2)c2ccccn2)nc1`: on Histamine H3 receptor, affinity was put at a Ki of 4 nM. Besides, the inhibition in assay [1] was below 50%.
`O=C(CC(c1ccc(Cl)cc1)c1ccccn1)NCCCCc1c[nH]cn1` (stereo not given) yielded a Ki at Histamine H3 receptor of 1 nM. Also, in assay [1], the inhibition was below 50%.
In turn, `CN(CCc1c[nH]cn1)C(=O)CC(c1ccc(Cl)cc1)c1ccccn1` (stereo not given) displayed an inhibition in assay [1] below 50%.
